Source: patent US9248162B2, “Factor H for treatment of rheumatoid arthritis” (Baxter International Inc., priority 2013, dated 2016)
“And” between values parts separate entries of the source, which are not always exact repeats. Equal entries are not always repeated.

Experiments:
[1] = tested on: collagen antibody-induced arthritis; test: Mouse CAIA: ankle histology scores (H & E); assay type: in vivo, Balb C mice; design: key to Score From H & E: Inflammation: 0: normal; 1: minimal infiltration of inflammatory cells in periarticular tissue; 2: mild infiltration; 3: moderate infiltration with moderate edema; 4: marked infiltration with marked edema; 5: severe infiltration with severe edema; key to Exostosis, Summary (significance) / Composite, Summary (significance) / Pannus, Summary (significance) / Cartilage, Summary (significance) / Inflammation, Summary (significance): ns: = not significant; *: = P < 0.05; **: = P < 0.01; ***: = P < 0.001; Composite Biohistopathology Score, group value / Composite Biohistopathology Score: scale not given here
Protocol: (§1) Balb C mice (n=10 per cohort) were used to determine the efficacy of Factor H (FH) during […]. The mice were treated with ArthritoMAb (anti-collagen) antibody cocktail (2 mg, i.v.) on day 1, followed 7 days later with an injection of LPS (50 μg, i.p.). On day 8, hind paw volumes were measured for each animal and distributed to various treatment groups.
(§2) Dosing with the different agents was started on day 8 as described in Table 3.
(§3) Hind paw volumes were measured on day 8, 11, 12, 13, 15, 19 and 22 (endpoint). The age at start date was 7 to 9 weeks. Body weights were measured bi-weekly to the endpoint (Table 4). At the endpoint, tissue samples were processed for histology and submitted to a pathologist for independent analysis. Sampling 1 was performed at the endpoint. The hind limbs were preserved in 10% formalin. Sampling 2 was performed at the endpoint for group 4 animals. Blood was collected by terminal cardiac puncture. The blood was processed for anti-coagulant. The kidneys were additionally preserved in formalin and followed with 70% EtOH. Samples were scored for inflammation, pannus (granulation tissue), cartilage damage, bone resorption and exostosis (Table 5).

[2] = tested on: collagen antibody-induced arthritis; test: Mouse CAIA: hind paw / footpad volume (swelling, disease burden); assay type: in vivo, Balb C mice; design: Mean Disease Burden / Total Disease Burden (AUC) / Hind Limb Volume, Mean Diff. / Total Disease, Mean Diff.: unit not given here
Protocol: as §1
(§4) Factor H was formulated in 20 mM Citrate, 150 mM NaCl, pH=6. […] Ethanercept was formulated as Enbrel™ in saline. Vehicle was formulated in 20 mM Citrate, 150 mM NaCl, pH=6. […] The dosing volume for Factor H and BX12 was 25 mL/kg (0.500 mL/20 g mouse) and adjusted accordingly for body weight.
as §2
as §3, with “The” for “Hind paw volumes were measured on day 8, 11, 12, 13, 15, 19 and 22 (endpoint). The”

[3] = tested on: collagen antibody-induced arthritis; test: Mouse CAIA: clinical score; assay type: in vivo, Balb C mice
Protocol: The mice were treated with ArthritoMAb (anti-collagen) antibody cocktail (2 mg, i.v.) on day 1, followed 7 days later with an injection of LPS (50 μg, i.p.). On day 8, hind paw volumes were measured for each animal and distributed to various treatment groups.
as §4, §2

[4] = Mouse CAIA: body weight and tolerability; assay type: in vivo, Balb C mice; conditions: mouse, in vivo
Protocol: as §1, §2, §3

[5] = tested on: collagen antibody-induced arthritis; test: Mouse CAIA: ankle histology scores (H & E); assay type: in vivo, Balb C mice; design: key: 0: normal; 1: minimal infiltration of pannus in cartilage and subchondral bone; 2: mild infiltration; 3: moderate infiltration; 4: marked infiltration; 5: severe infiltration; conditions: individual animal, score 0-5, endpoint day 22, listed as Group 2
Protocol: as §1, §2, §3

[6] = tested on: collagen antibody-induced arthritis; test: Mouse CAIA: ankle histology scores (H & E); assay type: in vivo, Balb C mice; design: key: 0: normal; 1: minimal infiltration of inflammatory cells in periarticular tissue; 2: mild infiltration; 3: moderate infiltration with moderate edema; 4: marked infiltration with marked edema; 5: severe infiltration with severe edema; conditions: individual animal
Protocol: as §1, §2, §3

[7] = tested on: kidney allografts in pre-sensitized recipients; test: Kidney allograft survival in pre-sensitized recipients, RAPA / FK506 / CFH (Example 2); assay type: in vivo, C57BL/6 (B6) mice
Excerpt: Male C3H (H-2k) and C57BL/6 (B6, H-2b) mice (25-30 g) were used to determine the efficacy of Rapamycin (RAPA) in combination with Factor H (FH) during transplant rejection. C3H mice served as skin graft and kidney donors for pre-sensitization and kidney transplantation. Male C57BL/c (B6) mice were used as recipients. The B6 recipients were pre-sensitized by transplantation of the donor skin grafts, and were subsequently transplanted with kidney allografts between 15 and 20 days after the skin transplantation. […]
Mice were monitored daily for signs of rejection and were euthanized at the end point of the experiment, which was defined as when transplants developed functional deterioration due to severe rejection or on POD60 and POD100. Renal graft function was monitored by plasma creatinine (Cr) blood urea nitrogen (BUN) and hematocrit (Hct) levels by an I-Stat potable analyzer (Abaxis). Circulating donor specific antibodies (DSAs) were determined prior to kidney transplantation and at the endpoint of study by flow cytometry.

[8] = histopathology score, graded 1-5, hind limbs at endpoint, group value
[9] = Vehicle vs agent, Dunnett's Multiple Comparison Test
[10] = Vehicle vs agent, Dunn's Multiple Comparison Test
[11] = ankle, group mean ± spread, 10 animals, score 0-5

For `C[C@@H]1C[C@H]2[C@@H]3CCC4=CC(=O)C=C[C@]4(C)[C@@]3(F)[C@@H](O)C[C@]2(C)[C@@]1(O)C(=O)CO` [Dex.], the “Composite Score” value ([1]; histopathology composite, hind limbs at endpoint, group value) was 0.2 ± 0.1, the “Bone Resorption” value [1, 8] was 0 ± 0^ns and the “Cartilage Damage” value [1, 8] was 0 ± 0^ns. For the same compound, the Exostosis [1, 8] was 0 ± 0, the Inflammation [1, 8] was 0.1 ± 0.1 and the Pannus [1, 8] was 0.1 ± 0.1^ns.
With `C[C@@H]1C[C@H]2[C@@H]3CCC4=CC(=O)C=C[C@]4(C)[C@@]3(F)[C@@H](O)C[C@]2(C)[C@@]1(O)C(=O)CO` [Dexamethasone] the “Hind Limb Volume, Summary (significance)” value [2, 9] was “*** (= P < 0.001)”, the “Total Disease, Summary (significance)” value [2, 9] was “*** (= P < 0.001)” and the Hind paw volume ([2]; day 8 of study, group mean, n 10) was 0.35 mL. The Hind paw volume ([2]; day 8 of study, individual animal) was 0.42 mL and 0.39 mL (2×) and 0.37 mL and 0.35 mL and 0.34 mL and 0.33 mL and 0.31 mL (2×) and 0.3 mL, the Hind paw volume ([2]; day 11 of study, group mean, n 10) was 0.32 mL and the Hind paw volume ([2]; day 11 of study, individual animal) was 0.38 mL and 0.34 mL and 0.32 mL (3×) and 0.3 mL (3×) and 0.35 mL and 0.31 mL. For the same compound, the Hind paw volume ([2]; day 12 of study, group mean, n 10) was 0.34 mL, the Hind paw volume ([2]; day 12 of study, individual animal) was 0.34 mL (4×) and 0.28 mL and 0.35 mL and 0.32 mL and 0.31 mL and 0.39 mL and 0.37 mL and the Hind paw volume ([2]; day 13 of study, group mean, n 10) was 0.33 mL. For the same compound, the Hind paw volume ([2]; day 13 of study, individual animal) was 0.31 mL (2×) and 0.3 mL (2×) and 0.36 mL and 0.35 mL (2×) and 0.33 mL and 0.38 mL and 0.29 mL, the Hind paw volume ([2]; day 16 of study, group mean, n 10) was 0.31 mL and the Hind paw volume ([2]; day 16 of study, individual animal) was 0.37 mL and 0.33 mL and 0.29 mL (3×) and 0.38 mL and 0.26 mL and 0.3 mL (2×) and 0.27 mL. The Hind paw volume ([2]; day 19 of study, group mean, n 10) was 0.34 mL, the Hind paw volume ([2]; day 19 of study, individual animal) was 0.35 mL (4×) and 0.28 mL and 0.3 mL (2×) and 0.38 mL and 0.37 mL and 0.32 mL and the Hind paw volume ([2]; day 22 of study, group mean, n 10) was 0.33 mL. The Hind paw volume ([2]; day 22 of study, individual animal) was 0.39 mL and 0.42 mL and 0.3 mL and 0.32 mL and 0.29 mL (2×) and 0.35 mL (2×) and 0.31 mL and 0.26 mL, the “% Disease Suppression” value ([2]; days 8-22, individual animal) was 95.1% and the “Total Disease Burden (AUC)” value ([2]; days 8-22, individual animal) was −0.56 and −0.05. The “Clinical Score, Summary (significance)” value [3, 10] was “*** (= P < 0.001)”, the “Clinical Score, Day of Study 8, Mean” value ([3]; group mean, n=10, day 8 (start of dosing)) was 4.00 and the “Clinical Score, Day of Study 11, Mean” value ([3]; group mean, n=10, day 11) was 0.10. For the same compound, the “Clinical Score, Day of Study 12, Mean” value ([3]; group mean, n=10, day 12) was 5.70, the “Clinical Score, Day of Study 13, Mean” value ([3]; group mean, n=10, day 13) was 6.00 and the “Clinical Score, Day of Study 16, Mean” value ([3]; group mean, n=10, day 16 (Jul. 1, 2011)) was 0.00. For the same compound, the “Clinical Score, Day of Study 19, Mean” value ([3]; group mean, n=10, day 19) was 0.00, the “Clinical Score, Day of Study 22, Mean” value ([3]; group mean, n=10, day 22 (endpoint)) was 0.00 and the “Clinical Score, Day of Study 8” value ([3]; individual animal, score 0-60, day 8 (start of dosing)) was 5 (2×) and 10 (3×) and 0 (5×). The “Clinical Score, Day of Study 11” value ([3]; individual animal, score 0-60, day 11) was 0 (9×) and 1, the “Clinical Score, Day of Study 12” value ([3]; individual animal, score 0-60, day 12) was 0 (3×) and 10 (4×) and 5 (2×) and 7 and the “Clinical Score, Day of Study 13” value ([3]; individual animal, score 0-60, day 13) was 0 (4×) and 10 (6×). The “Clinical Score, Day of Study 16” value ([3]; individual animal, score 0-60, day 16 (Jul. 1, 2011)) was 0, the “Clinical Score, Day of Study 19” value ([3]; individual animal, score 0-60, day 19) was 0 and the “Clinical Score, Day of Study 22” value ([3]; individual animal, score 0-60, day 22 (endpoint)) was 0. For the same compound, the “Cartilage, Summary (significance)” value [1, 10] was “ns”, the “Composite, Summary (significance)” value [1, 10] was “* (= P < 0.05)” and the “Exostosis, Summary (significance)” value [1, 10] was “** (= P < 0.01)”. For the same compound, the “Inflammation, Summary (significance)” value [1, 10] was “** (= P < 0.01)”, the “Pannus, Summary (significance)” value [1, 10] was “ns” and the “Composite Biohistopathology Score, group value” ([1]; ankle, group mean ± spread, 10 animals) was 0.2 ± 0.1. For the same compound, the “Score From H & E: Bone Resorption, group value” [1, 11] was 0.0 ± 0.0, the “Score From H & E: Cartilage Damage, group value” [1, 11] was 0.0 ± 0.0 and the “Score From H & E: Inflammation, group value” [1, 11] was 0.1 ± 0.1. The “Score From H & E: Pannus, group value” [1, 11] was 0.1 ± 0.1, the “Score From H & E: Periosteal/Exostotic Changes, group value” [1, 11] was 0.0 ± 0.0 and the “Composite Biohistopathology Score” value ([1]; ankle, individual animal, endpoint day 22, listed as Group 2) was 1 (2×) and 0 (8×). For the same compound, the “Score From H & E: Inflammation” value ([1]; ankle, individual animal, score 0-5, endpoint day 22, listed as Group 2) was 0 (9×) and 1, the “Mean Body Weigh at Nadir” value [4] was −7.7% and the “Score From H & E: Pannus” value [5] was 1. The “Score From H & E: Bone Resorption” value ([6]; score 0-5, endpoint day 22) was 0, the “Score From H & E: Cartilage Damage” value ([6]; score 0-5, endpoint day 22) was 0 and the “Score From H & E: Periosteal/Exostotic Changes” value ([6]; score 0-5, endpoint day 22) was 0. The “Score From H & E: Pannus” value ([6]; score 0-5, endpoint day 22, listed as Group 2) was 0.
For `CO[C@H]1C[C@@H]2CC[C@@H](C)[C@@](O)(O2)C(=O)C(=O)N2CCCC[C@H]2C(=O)O[C@H]([C@H](C)C[C@@H]2CC[C@@H](O)[C@H](OC)C2)CC(=O)[C@H](C)/C=C(\C)[C@@H](O)[C@@H](OC)C(=O)[C@H](C)C[C@H](C)/C=C/C=C/C=C/1C` [RAPA, Rapamycin], the “Survival” value ([7]; individual graft survival, one value per graft) was 8 days (2×) and 37 days and 10 days and 11 days and 12 days and 22 days and 14 days and 16 days and 20 days and the MST ([7]; mean survival time of cohort, untreated controls 8 days) was 14 days.
